Values quoted from earlier work as cited in paper PMC7904743, “WIDOCK: a reactive docking protocol for virtual screening of covalent inhibitors” (Journal of Computer-Aided Molecular Design, 2021).
Read-outs that look alike come from different tables or passages of the source.

Assays:
[1] = tested on: NUDT7; conditions: protein labeling at 200 μM; experimental actives if % labeling higher than 50%; cited from earlier work
[2] = thiol reactivity, cited from earlier work
[3] = tested on: OTUB2; conditions: experimental actives if % labeling higher than 50%, cited from earlier work
[4] = natural log of average rate constant k
[5] = natural logarithm of average rate constant
[6] = natural log of average kinetic rate constant
[7] = natural log of average rate constant

SMILES | NUDT7 % labeling [1] [%] | ln(avg k) [2, 4] | ln(avg k) [2, 5] | OTUB2 % labeling [3] [%] | ln(avg k) [2, 6] | ln(avg k) [2, 7] | OTUB2 % labeling ([3]; OTUB2 protein labeling) [%]
CC(C#N)(NC(=O)CCl)C1CC1 (stereo not shown) [PCM-0102664, CC(C#N)(NC(=O)CCl)C1CC1] | 0 | -16.170 | -16.170 | 0 | – | – | –
Cc1ccc(N(C(=O)CCl)C2C=CS(=O)(=O)C2)cc1C (stereo not shown) [PCM-0103082, Cc1ccc(N(C(=O)CCl)C2C=CS(=O)(=O)C2)cc1C] | 15 | – | – | – | -15.512 | -15.512 | 0
CCNC(=O)NC(=O)CCl [PCM-0102654, CCNC(=O)NC(=O)CCl] | 0 | -16.588 | -16.588 | 0 | – | – | –
CN(CCC#N)C(=O)CCl [PCM-0102712, CN(CCC#N)C(=O)CCl] | 0 | – | -15.839 | 0 | – | -15.839 | –
O=C(CCl)N1CCOC2CCCCC21 (stereo not shown) [PCM-0102940, O=C(CCl)N1CCOC2CCCCC21] | 0 | – | – | – | -15.696 | -15.696 | 0
O=C(CCl)NC(=O)NCC(F)(F)F [PCM-0103037, O=C(CCl)NC(=O)NCC(F)(F)F] | 0 | – | – | – | -15.772 | -15.772 | 30
Cc1cccc(CNC(=O)CCl)c1 [PCM-0102821, Cc1cccc(CNC(=O)CCl)c1] | 0 | – | – | – | -16.579 | -16.579 | 86
Cc1ccc(-c2csc(NC(=O)CCl)n2)cc1 [PCM-0102168, Cc1ccc(-c2csc(NC(=O)CCl)n2)cc1] | 40 | -15.760 | -15.760 | 0 | – | – | –
O=C(CCl)NC(=O)NC12CC3CC(CC(C3)C1)C2 [PCM-0102360, O=C(CCl)NC(=O)NC12CC3CC(CC(C3)C1)C2] | 0 | -16.068 | -16.068 | 12 | – | – | –
N#CC(c1cccs1)N1CCN(C(=O)CCl)CC1 (stereo not shown) [PCM-0102223, N#CC(c1cccs1)N1CCN(C(=O)CCl)CC1] | 0 | -15.143 | -15.143 | 0 | – | – | –
O=C(CCl)NC1CCN(C(=O)c2ccco2)CC1 [PCM-0102619, O=C(CCl)NC1CCN(C(=O)c2ccco2)CC1] | 0 | -16.352 | -16.352 | 10 | – | – | –
Cc1cc(NC(=O)CCl)no1 [PCM-0102500, Cc1cc(NC(=O)CCl)no1] | 0 | -15.955 | -15.955 | 35 | – | – | –
CC1CCCC(NC(=O)NC(=O)CCl)C1C (stereo not shown) [PCM-0102332, CC1CCCC(NC(=O)NC(=O)CCl)C1C] | 0 | -15.913 | -15.913 | 0 | – | – | –
O=C(CCl)Nc1cc([N+](=O)[O-])ccc1F [PCM-0102544, O=C(CCl)Nc1cc([N+](=O)[O-])ccc1F] | 0 | -15.793 | -15.793 | 31 | – | – | –
O=C(CCl)N1CCCC(c2nc3ccccc3s2)C1 (stereo not shown) [PCM-0102425, O=C(CCl)N1CCCC(c2nc3ccccc3s2)C1] | 28 | -15.591 | -15.591 | 0 | – | – | –
CNC(=O)C1CCN(C(=O)CCl)CC1 [PCM-0102815, CNC(=O)C1CCN(C(=O)CCl)CC1] | 0 | – | – | – | -15.403 | -15.403 | 8
O=C(CCl)NCc1ccc(F)cc1C(F)(F)F [PCM-0102733, O=C(CCl)NCc1ccc(F)cc1C(F)(F)F] | 6 | – | -16.673 | 33 | – | -16.673 | –

SMILES | NUDT7 % labeling [1] [%] | ln(avg k) [2, 4] | ln(avg k) [2, 5] | OTUB2 % labeling [3] [%] | ln(avg k) [2, 6] | ln(avg k) [2, 7] | OTUB2 % labeling ([3]; OTUB2 protein labeling) [%]
Cc1oc(NC(=O)CCl)c(C#N)c1C [PCM-0102337, Cc1oc(NC(=O)CCl)c(C#N)c1C] | 0 | -15.944 | -15.944 | 45 | – | – | –
CCc1nnc(NC(=O)CCl)s1 [PCM-0102166, CCc1nnc(NC(=O)CCl)s1] | 21 | -16.086 | -16.086 | 0 | – | – | –
O=C(CCl)N1CCN(Cc2ccc(Cl)cc2)CC1 [PCM-0102818, O=C(CCl)N1CCN(Cc2ccc(Cl)cc2)CC1] | 0 | – | – | – | -15.454 | -15.454 | 17
C#CCN1CCN(C(=O)CCl)CC1 [PCM-0102811, C#CCN1CCN(C(=O)CCl)CC1] | 0 | – | – | – | -15.973 | -15.973 | 0
CN(Cc1ccc2c(c1)OCCO2)C(=O)CCl [PCM-0102958, CN(Cc1ccc2c(c1)OCCO2)C(=O)CCl] | 27 | – | – | – | -16.177 | -16.177 | 9
O=C(CCl)Nc1ccncc1 [PCM-0102930, O=C(CCl)Nc1ccncc1] | 0 | – | – | – | -16.813 | -16.813 | 0
CC1(c2ccccc2)NC(=O)N(NC(=O)CCl)C1=O (stereo not shown) [PCM-0102428, CC1(c2ccccc2)NC(=O)N(NC(=O)CCl)C1=O] | 0 | -17.653 | -17.653 | 0 | – | – | –
CC12CCC(CC1=NNC(=O)CCl)C2(C)C (stereo not shown) [PCM-0102498, CC12CCC(CC1=NNC(=O)CCl)C2(C)C] | 0 | -15.811 | -15.811 | 0 | – | – | –
O=C(CCl)N1CCNCC1 [PCM-0102476, O=C(CCl)N1CCNCC1] | 0 | -17.059 | -17.059 | 0 | – | – | –
Cc1cc(NC(=O)CCl)n(C(C)(C)C)n1 [PCM-0103057, Cc1cc(NC(=O)CCl)n(C(C)(C)C)n1] | 0 | – | – | – | -16.148 | -16.148 | 0
O=C(CCl)N1CCN(CC(=O)N2CCCC2)CC1 [PCM-0102346, O=C(CCl)N1CCN(CC(=O)N2CCCC2)CC1] | 0 | -16.189 | -16.189 | 0 | – | – | –
NS(=O)(=O)c1ccc(Cl)c(NC(=O)CCl)c1 [PCM-0103012, NS(=O)(=O)c1ccc(Cl)c(NC(=O)CCl)c1] | 0 | – | – | – | -15.947 | -15.947 | 10
CCN(C(=O)CCl)c1ccccc1C [PCM-0102980, CCN(C(=O)CCl)c1ccccc1C] | 43 | – | – | – | -16.814 | -16.814 | 0
CN(Cc1cc(Cl)cc(Cl)c1)C(=O)CCl [PCM-0102678, CN(Cc1cc(Cl)cc(Cl)c1)C(=O)CCl] | 45 | -15.789 | -15.789 | 0 | – | – | –
Cc1ccc(-c2nnc(C)[nH]2)c(NC(=O)CCl)c1 [PCM-0102775, Cc1ccc(-c2nnc(C)[nH]2)c(NC(=O)CCl)c1] | 13 | – | – | – | -16.632 | -16.632 | 0
O=C(CCl)Nc1cccnc1Cl [PCM-0102274, O=C(CCl)Nc1cccnc1Cl] | 0 | -16.315 | -16.315 | 0 | – | – | –
Cc1nc(C2(NC(=O)CCl)CCCCC2)no1 [PCM-0102983, Cc1nc(C2(NC(=O)CCl)CCCCC2)no1] | 10 | – | – | – | -17.277 | -17.277 | 0
